Results reported in US11179412B2, “Methods of treating conditions involving elevated inflammatory response” (University of Pittsburgh—Of the Commonwealth System of …, priority 2017, dated 2021).
Entries after “also recorded” stand apart in the source; their conditions may differ.

Tests used:
[1] = test system: STING activation (IFNβ release) in pPBMCs; assay: IFNβ release ELISA, primary peripheral blood mononuclear cells (pPBMCs); assay type: cell-based; conditions: human pPBMCs; 3′3′-cGAMP 10 μg/ml, 16 hours; compound 10 μM
Protocol: (§1) Macrophages or monocytes were treated with 3′3′-cGAMP (10 μg/ml, Invitrogen) for 16 hours in the absence or presence of one compound (10 μM) from the Target-selective Inhibitory Library (#L3500, Selleck Chemicals). Commercially available enzyme-linked immunosorbent assay (ELISA) kits were used to measure the concentrations of mouse IFNβ (Thermo Fisher Scientific) or human IFNβ (Thermo Fisher Scientific) in culture medium according to the manufacturer's instructions.

[2] = test system: IFNβ mRNA in J774A.1 cells; assay: IFNβ mRNA Q-PCR, J774A.1 cells; assay type: cell-based, mouse; conditions: STING ligands 10 μg/ml, inhibitor 10 μM, 16 hours
Protocol: (§2) Total RNA was extracted using QIAGEN RNeasy Plus Kit according to the manufacturer's instructions. First-strand cDNA was synthesized from 1 μg of RNA using the iScript cDNA Synthesis kit (#1708890, Bio-Rad). Briefly, 20 μl reactions were prepared by combining 4 μl iScript Select reaction mix, 2 μl gene-specific enhancer solution, 1 μl reverse transcriptase, 1 μl gene-specific assay pool (20×, 2 μM), and 12 μl RNA diluted in RNase-free water. Quantitative real-time PCR was carried out using synthesized cDNA, primers, and SsoFast EvaGreen Supermix (#172-5204, Bio-Rad). The expression of target genes was calculated using the ddCt method relative to the expression of a house-keeping gene, β-actin. Data shown are the relative quantity (RQ), with RQ of the control cells set to one.

RAW264.7 cells = assay: Cell viability assay (CCK-8), RAW264.7; assay type: cell-based, mouse; conditions: 3′3′-cGAMP 10 μg/ml, ALK inhibitor 10 μM, 16 hours
Protocol: (§3) Cells were seeded into 96-well plates and incubated with the indicated treatments. Subsequently, 100 μl fresh medium was added to cells containing 10 μl Cell Counting Kit-8 (CCK-8) solutions (Dojindo Laboratories) and incubated for 1 h (37° C., 5% CO2). Absorbance at 450 nm was measured using a microplate reader (Tecan).

[3] = test system: STING signaling (TBK1, IRF3, p65, ALK, EGFR, AKT phosphorylation) in RAW264.7 cells; assay: Western blot of STING pathway protein phosphorylation, RAW264.7; assay type: cell-based, mouse; conditions: 10 μM
Protocol: (§4) For immunoblotting, cells were lysed in Cell Lysis Buffer (#9803, Cell Signaling Technology) with protease inhibitor cocktail (Promega), phosphatase inhibitor cocktail (Sigma), and 1 mM Na3VO4 (70). Cleared lysates were resolved by SDS-PAGE (#3450124, Bio-Rad) and then transferred onto PVDF membranes (#1704273, Bio-Rad). The membranes were blocked with Tris-buffered saline Tween 20 (TBST) containing 5% skim milk for 1 h at room temperature and then incubated with the indicated primary antibodies (1:1000-1:5000) overnight at 4° C. After being washed with TBST, the membranes were incubated with an HRP-linked anti-mouse IgG secondary antibody (#7076, Cell Signaling Technology) or HRP-linked anti-rabbit IgG secondary antibody (#7074, Cell Signaling Technology) for 1 h at room temperature. The membranes were washed three times in TBST and then visualized and analyzed with a ChemiDoc Touch Imaging System (#1708370, Bio-Rad). The intensities of bands were analyzed with Image Lab software.

iBMDMs = assay: Cell viability assay (CCK-8), iBMDMs; assay type: cell-based, mouse; conditions: 3′3′-cGAMP 10 μg/ml, ALK inhibitor 10 μM, 16 hours
Protocol: as §3

THP1 cells = assay: Cell viability assay (CCK-8), THP1; assay type: cell-based, human; conditions: 3′3′-cGAMP 10 μg/ml, ALK inhibitor 10 μM, 16 hours
Protocol: as §3

[4] = test system: STING activation (IFNβ release) in J774A.1 cells; assay: IFNβ release ELISA, J774A.1 cells; assay type: cell-based, mouse; conditions: STING ligands 10 μg/ml, inhibitor 10 μM, 16 hours
Protocol: as §1

[5] = test system: STING activation (IFNβ release) in THP1 cells; assay: IFNβ release ELISA, THP1 cells; assay type: cell-based, human; conditions: STING ligands 10 μg/ml, inhibitor 10 μM, 16 hours
Protocol: as §1

[6] = test system: STING activation (IFNβ release) in iBMDMs; assay: IFNβ release ELISA after STING ligand (or LPS) stimulation, iBMDMs; assay type: cell-based, mouse
Outline: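 IFNβ released into the medium was quantified by ELISA (mouse or human kit) after iBMDM stimulation with the canonical STING agonist 3′3′-cGAMP or with LPS.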

[7] = test system: STING signaling (TBK1, IRF3, p65 phosphorylation) in J774A.1 cells; assay: Western blot of STING pathway protein phosphorylation, J774A.1; assay type: cell-based, mouse; conditions: 10 μM
Protocol: as §4

[8] = test system: STING signaling (TBK1, IRF3, p65, ALK, EGFR, AKT phosphorylation) in iBMDMs; assay: Western blot of STING pathway protein phosphorylation, iBMDMs; assay type: cell-based, mouse
Protocol: as §4

[9] = target: T1, interaction between ALK and EGFR (Homo sapiens, UniProt P00533+Q9UM73); assay: IP analysis of the interaction between ALK and EGFR, THP1; assay type: cell-based; conditions: 3′3′-cGAMP or c-di-AMP 10 μg/ml, 16 hours, 10 μM
T1 construct: endogenous in cells; host or cells: THP1 cells
T1 sequence (Q9UM73 19-1620): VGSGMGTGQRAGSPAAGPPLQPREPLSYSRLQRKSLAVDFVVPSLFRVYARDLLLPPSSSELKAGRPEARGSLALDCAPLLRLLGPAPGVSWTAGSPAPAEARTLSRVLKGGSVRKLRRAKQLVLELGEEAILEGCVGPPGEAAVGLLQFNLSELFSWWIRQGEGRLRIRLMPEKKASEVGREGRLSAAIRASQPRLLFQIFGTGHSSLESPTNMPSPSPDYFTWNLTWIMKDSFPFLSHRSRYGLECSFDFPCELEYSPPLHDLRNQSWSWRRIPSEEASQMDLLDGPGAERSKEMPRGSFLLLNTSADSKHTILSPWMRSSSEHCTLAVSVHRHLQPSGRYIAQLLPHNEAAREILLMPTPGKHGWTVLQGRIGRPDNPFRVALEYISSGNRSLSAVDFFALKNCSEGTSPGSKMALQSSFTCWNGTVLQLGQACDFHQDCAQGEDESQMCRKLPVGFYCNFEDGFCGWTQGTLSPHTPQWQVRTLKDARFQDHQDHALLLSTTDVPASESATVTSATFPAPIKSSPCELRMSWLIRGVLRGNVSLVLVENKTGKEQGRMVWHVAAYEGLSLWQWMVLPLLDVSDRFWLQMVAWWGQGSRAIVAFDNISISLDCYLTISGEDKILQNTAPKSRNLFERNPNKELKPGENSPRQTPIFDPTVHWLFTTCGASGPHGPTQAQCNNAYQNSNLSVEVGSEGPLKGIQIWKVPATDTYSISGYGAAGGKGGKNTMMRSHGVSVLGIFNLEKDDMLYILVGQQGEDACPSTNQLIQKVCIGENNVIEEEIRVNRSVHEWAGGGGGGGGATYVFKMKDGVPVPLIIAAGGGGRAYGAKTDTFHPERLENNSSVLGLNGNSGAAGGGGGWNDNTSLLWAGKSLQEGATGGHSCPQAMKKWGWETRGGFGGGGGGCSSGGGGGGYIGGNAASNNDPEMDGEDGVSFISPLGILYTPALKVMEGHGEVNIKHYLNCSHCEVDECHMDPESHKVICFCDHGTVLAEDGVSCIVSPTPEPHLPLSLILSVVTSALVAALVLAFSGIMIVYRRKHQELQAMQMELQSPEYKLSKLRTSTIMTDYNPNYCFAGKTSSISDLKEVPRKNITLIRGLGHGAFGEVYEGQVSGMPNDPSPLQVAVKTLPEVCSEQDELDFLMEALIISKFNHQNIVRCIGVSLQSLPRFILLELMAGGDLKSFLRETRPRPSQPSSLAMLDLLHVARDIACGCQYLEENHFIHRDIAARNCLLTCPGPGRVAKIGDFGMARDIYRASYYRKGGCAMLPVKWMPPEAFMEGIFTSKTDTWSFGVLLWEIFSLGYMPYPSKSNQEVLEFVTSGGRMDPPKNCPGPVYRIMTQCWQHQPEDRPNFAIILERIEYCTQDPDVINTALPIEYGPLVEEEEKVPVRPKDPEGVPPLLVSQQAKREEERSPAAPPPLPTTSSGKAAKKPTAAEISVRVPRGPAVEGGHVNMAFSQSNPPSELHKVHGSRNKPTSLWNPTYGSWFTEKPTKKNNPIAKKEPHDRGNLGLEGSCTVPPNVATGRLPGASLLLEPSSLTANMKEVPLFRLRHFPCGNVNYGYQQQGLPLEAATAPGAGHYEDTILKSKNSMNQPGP
T1 sequence (P00533 25-1210): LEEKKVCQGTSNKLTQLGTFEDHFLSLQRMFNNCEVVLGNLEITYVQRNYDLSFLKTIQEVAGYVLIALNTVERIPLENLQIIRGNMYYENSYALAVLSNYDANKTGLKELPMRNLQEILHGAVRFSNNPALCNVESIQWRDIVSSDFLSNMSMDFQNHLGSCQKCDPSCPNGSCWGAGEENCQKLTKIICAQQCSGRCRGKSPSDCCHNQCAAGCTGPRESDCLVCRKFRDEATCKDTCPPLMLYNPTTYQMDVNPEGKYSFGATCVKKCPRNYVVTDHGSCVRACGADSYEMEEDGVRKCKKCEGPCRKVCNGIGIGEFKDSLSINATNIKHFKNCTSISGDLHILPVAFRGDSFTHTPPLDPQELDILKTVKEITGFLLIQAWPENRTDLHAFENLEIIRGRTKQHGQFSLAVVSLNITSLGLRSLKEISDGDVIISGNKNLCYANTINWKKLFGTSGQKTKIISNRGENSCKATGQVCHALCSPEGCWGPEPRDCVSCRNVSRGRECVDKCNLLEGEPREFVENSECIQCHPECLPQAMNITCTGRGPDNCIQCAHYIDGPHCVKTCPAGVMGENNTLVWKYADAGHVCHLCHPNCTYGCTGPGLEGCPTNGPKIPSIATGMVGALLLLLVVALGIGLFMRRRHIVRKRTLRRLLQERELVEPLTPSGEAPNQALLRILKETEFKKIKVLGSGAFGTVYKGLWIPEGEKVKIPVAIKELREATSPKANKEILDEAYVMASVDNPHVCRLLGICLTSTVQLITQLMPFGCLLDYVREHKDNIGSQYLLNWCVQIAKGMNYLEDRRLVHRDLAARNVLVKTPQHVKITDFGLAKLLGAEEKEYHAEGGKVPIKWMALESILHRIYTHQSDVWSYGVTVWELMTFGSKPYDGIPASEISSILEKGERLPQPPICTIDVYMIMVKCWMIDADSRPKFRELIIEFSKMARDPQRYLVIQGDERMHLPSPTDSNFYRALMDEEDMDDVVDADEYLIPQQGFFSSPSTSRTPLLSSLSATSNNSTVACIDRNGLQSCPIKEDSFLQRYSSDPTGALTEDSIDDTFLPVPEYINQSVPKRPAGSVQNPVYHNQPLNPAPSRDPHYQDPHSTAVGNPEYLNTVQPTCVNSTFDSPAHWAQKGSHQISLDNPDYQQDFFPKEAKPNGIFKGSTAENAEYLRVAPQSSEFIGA
Protocol: For immunoprecipitation, cells were lysed at 4° C. in ice-cold modified radioimmunoprecipitation lysis buffer (#9806, Cell Signaling Technology) and cell lysates were cleared by centrifugation (12,000 g, 10 min). Concentrations of proteins in the supernatant were determined by bicinchoninic acid assay. Prior to immunoprecipitation, samples containing equal amounts of proteins were pre-cleared with Protein A/G agarose/sepharose beads (#20423, Thermo Fisher Scientific Inc.) (4° C., 3 h) and subsequently incubated with various irrelevant IgG or anti-ALK (#ab190934, Abcam) or anti-EGFR antibodies (#2232S, Cell Signaling Technology) in the presence of Protein A/G agarose/sepharose beads overnight at 4° C. with gentle shaking. Following incubation, agarose/sepharose beads were washed extensively with PBS and proteins were eluted by boiling in 2× sodium dodecyl sulfate (SDS) sample buffer before SDS-PAGE electrophoresis.

pPMs = assay: Cell viability assay (CCK-8), pPMs; assay type: cell-based, mouse; conditions: 3′3′-cGAMP 10 μg/ml, ALK inhibitor 10 μM, 16 hours
Protocol: as §3

[10] = test system: IFNβ mRNA in RAW264.7 cells; assay: IFNβ mRNA Q-PCR, RAW264.7 cells; assay type: cell-based, mouse; conditions: STING ligands 10 μg/ml, inhibitor 10 μM, 16 hours
Protocol: as §2

[11] = 3′3′-cGAMP 10 μg/ml, three to 16 hours

SMILES: Cc1cc(Nc2ncc(Cl)c(Nc3ccccc3S(=O)(=O)C(C)C)n2)c(OC(C)C)cc1C1CCNCC1 [LDK378, 5-chloro-N^2-(2-isopropoxy-5-methyl-4-(piperidin-4-yl)phenyl)-N^4-[2-(propane-2-sulfonyl)-phenyl]-pyrimidine-2,4-diamine]
- 3′3′-cGAMP-induced IFNβ release [1]: confirmed their inhibitory properties
- STING ligand-induced IFNβ mRNA expression [2]: attenuation
- cell viability (RAW264.7 cells): did not affect cell viability
- 3′3′-cGAMP-induced p-TBK1 [3, 11]: time-dependently reduced
- STING ligand-induced phosphorylation of TBK1, IRF3, and p65 ([3]; 3′3′-cGAMP or c-di-AMP 10 μg/ml, 16 hours): diminished
- 3′3′-cGAMP-, c-di-AMP-, and DMXAA-induced p-IRF3 and p-p65 ([3]; ligand 10 μg/ml): inhibited
- c-di-AMP- or DMXAA-induced p-TBK1 ([3]; ligand 10 μg/ml, 16 hours): inhibited
- 3′3′-cGAMP- or c-di-AMP-induced phosphorylation of ALK, EGFR, and AKT ([3]; ligand 10 μg/ml, 16 hours): attenuated
- cell viability (iBMDMs): did not affect cell viability
- cell viability (THP1 cells): did not affect cell viability
- IFNβ release induced by STING ligands [4]: inhibited
- IFNβ release induced by STING ligands [5]: inhibited
- fold increase in IFN-β release [6]: 0.08 fold
- 3′3′-cGAMP-induced IFNβ release ([6]; iBMDMs, 3′3′-cGAMP 10 μg/ml, 16 hours, compound 10 μM): blocked; also recorded: diminished
- LPS-induced IFNβ release ([6]; iBMDMs, LPS 1 μg/ml, LDK378 10 μM, three hours): inhibited
- IFNβ release induced by STING ligands ([6]; iBMDMs, STING ligands 10 μg/ml, inhibitor 10 μM, 16 hours): inhibited
- 3′3′-cGAMP-induced p-TBK1 [7, 11]: time-dependently reduced
- 3′3′-cGAMP-, c-di-AMP-, and DMXAA-induced p-IRF3 and p-p65 ([7]; ligand 10 μg/ml): inhibited
- c-di-AMP- or DMXAA-induced p-TBK1 ([7]; ligand 10 μg/ml, 16 hours): inhibited
- 3′3′-cGAMP-induced p-TBK1 ([8]; 3′3′-cGAMP 10 μg/ml, 10 μM, three to 16 hours): time-dependently reduced
- STING ligand-induced phosphorylation of TBK1, IRF3, and p65 ([8]; 3′3′-cGAMP or c-di-AMP 10 μg/ml, 16 hours, 10 μM): diminished
- LPS-induced phosphorylation of TBK1, IRF3, and p65 ([8]; LPS 1 μg/ml, LDK378 10 μM, three hours): inhibited
- 3′3′-cGAMP-, c-di-AMP-, and DMXAA-induced p-IRF3 and p-p65 ([8]; ligand 10 μg/ml, 10 μM): inhibited
- c-di-AMP- or DMXAA-induced p-TBK1 ([8]; ligand 10 μg/ml, 10 μM, 16 hours): inhibited
- 3′3′-cGAMP- or c-di-AMP-induced phosphorylation of ALK, EGFR, and AKT ([8]; ligand 10 μg/ml, 16 hours, 10 μM): attenuated
- interaction between ALK and EGFR [9]: reduced
- cell viability (pPMs): did not affect cell viability
- STING ligand-induced IFNβ mRNA expression [10]: attenuation
